According to PubChem BioAssay AID1259407 (Chemical Carcinogenesis Research Information System (CCRIS), 2018):
The source made the active and inactive calls. How the calls were made is not given here.

Test system: CCRIS mutagenicity, Ames/micronucleus/aberration tests
Assay: CCRIS mutagenicity studies
[1] = Test System: AMES SALMONELLA TYPHIMURIUM, Strain/Indicator: TA98, Metabolic Activation: RAT, LIVER, S-9, AROCLOR 1254, Method: STANDARD PLATE
[2] = Test System: AMES SALMONELLA TYPHIMURIUM, Strain/Indicator: TA100, Metabolic Activation: RAT, LIVER, S-9, AROCLOR 1254, Method: STANDARD PLATE
[3] = Test System: AMES SALMONELLA TYPHIMURIUM, Strain/Indicator: TA102, Metabolic Activation: NONE, Method: STANDARD PLATE
[4] = Test System: AMES SALMONELLA TYPHIMURIUM, Strain/Indicator: TA1535, Metabolic Activation: NONE, Method: STANDARD PLATE
[5] = Test System: AMES SALMONELLA TYPHIMURIUM, Strain/Indicator: TA1538, Metabolic Activation: NONE, Method: STANDARD PLATE
[6] = Test System: AMES SALMONELLA TYPHIMURIUM, Strain/Indicator: TA98, Metabolic Activation: NONE, Method: STANDARD PLATE
[7] = Test System: AMES SALMONELLA TYPHIMURIUM, Strain/Indicator: TA100, Metabolic Activation: NONE, Method: STANDARD PLATE

## CN(C)C(=S)SSC(=S)N(C)C
End Point: IN VIVO MICRONUCLEUS, Test System: BONE MARROW POLYCHROMATIC ERYTHROCYTES, Species: MOUSE, Strain/Sex: SWISS/MALE, FEMALE, Route: IP 2X IN AQUEOUS SUSPENSION WITHIN 24 HR
  mutagenic call: inactive; negative
[1]
  mutagenic call: active; positive
Test System: AMES SALMONELLA TYPHIMURIUM, Strain/Indicator: TA98, Metabolic Activation: S-9, Method: STANDARD PLATE
  mutagenic call: inactive; negative
[2]
  mutagenic call: active; positive
Test System: AMES SALMONELLA TYPHIMURIUM, Strain/Indicator: TA100, Metabolic Activation: S-9, Method: STANDARD PLATE
  mutagenic call: active; positive
[3]
  mutagenic call: inactive; negative
Test System: AMES SALMONELLA TYPHIMURIUM, Strain/Indicator: TA102, Metabolic Activation: RAT, LIVER, S-9, AROCLOR 1254, Method: STANDARD PLATE
  mutagenic call: inactive; negative
Test System: AMES SALMONELLA TYPHIMURIUM, Strain/Indicator: TA104, Metabolic Activation: NONE, Method: STANDARD PLATE
  mutagenic call: inactive; negative
Test System: AMES SALMONELLA TYPHIMURIUM, Strain/Indicator: TA104, Metabolic Activation: RAT, LIVER, S-9, AROCLOR 1254, Method: STANDARD PLATE
  mutagenic call: inactive; negative
[4]
  mutagenic call: active; positive
Test System: AMES SALMONELLA TYPHIMURIUM, Strain/Indicator: TA1535, Metabolic Activation: RAT, LIVER, S-9, AROCLOR 1254, Method: STANDARD PLATE
  mutagenic call: active; positive
[5]
  mutagenic call: active; positive
Test System: AMES SALMONELLA TYPHIMURIUM, Strain/Indicator: TA1538, Metabolic Activation: RAT, LIVER, S-9, AROCLOR 1254, Method: STANDARD PLATE
  mutagenic call: active; positive
Test System: CHINESE HAMSTER V-79, Strain/Indicator: V-79 (HGPRT)/6-THIOGUANINE, Metabolic Activation: NONE, Method: RESPREADING
  mutagenic call: active; positive

## O=[N+]([O-])c1ccc2ccc3cc4c(c5ccc1c2c35)C=CCC4
Test System: AMES SALMONELLA TYPHIMURIUM, Strain/Indicator: TA98(1,8-DNP6), Metabolic Activation: NONE, Method: STANDARD PLATE
  mutagenic call: active; positive
Test System: AMES SALMONELLA TYPHIMURIUM, Strain/Indicator: TA98(1,8-DNP6), Metabolic Activation: RAT, LIVER, S-9, AROCLOR 1254, Method: STANDARD PLATE
  mutagenic call: active; positive
Test System: AMES SALMONELLA TYPHIMURIUM, Strain/Indicator: TA98(NR), Metabolic Activation: NONE, Method: STANDARD PLATE
  mutagenic call: active; positive
Test System: AMES SALMONELLA TYPHIMURIUM, Strain/Indicator: TA98(NR), Metabolic Activation: RAT, LIVER, S-9, AROCLOR 1254, Method: STANDARD PLATE
  mutagenic call: active; positive
[6]
  mutagenic call: active; positive
[1]
  mutagenic call: active; positive
[7]
  mutagenic call: inactive; negative
[2]
  mutagenic call: active; positive

## O=C(Nc1cc(Cl)cc(Cl)c1O)c1c(O)c(Cl)cc(Cl)c1Cl
[6]
  mutagenic call: inactive; negative
Test System: AMES SALMONELLA TYPHIMURIUM, Strain/Indicator: TA98, Metabolic Activation: RAT, LIVER, S-9, KANECHLOR 400, Method: STANDARD PLATE
  mutagenic call: inactive; negative
[7]
  mutagenic call: inactive; negative
Test System: AMES SALMONELLA TYPHIMURIUM, Strain/Indicator: TA100, Metabolic Activation: RAT, LIVER, S-9, KANECHLOR 400, Method: STANDARD PLATE
  mutagenic call: inactive; negative
[4]
  mutagenic call: inactive; negative
Test System: AMES SALMONELLA TYPHIMURIUM, Strain/Indicator: TA1535, Metabolic Activation: RAT, LIVER, S-9, KANECHLOR 400, Method: STANDARD PLATE
  mutagenic call: inactive; negative
Test System: AMES SALMONELLA TYPHIMURIUM, Strain/Indicator: TA1537, Metabolic Activation: NONE, Method: STANDARD PLATE
  mutagenic call: inactive; negative
Test System: AMES SALMONELLA TYPHIMURIUM, Strain/Indicator: TA1537, Metabolic Activation: RAT, LIVER, S-9, KANECHLOR 400, Method: STANDARD PLATE
  mutagenic call: inactive; negative
[5]
  mutagenic call: inactive; negative
Test System: AMES SALMONELLA TYPHIMURIUM, Strain/Indicator: TA1538, Metabolic Activation: RAT, LIVER, S-9, KANECHLOR 400, Method: STANDARD PLATE
  mutagenic call: inactive; negative

## O=[As](O)(O)O
End Point: IN VITRO CHROMOSOMAL ABERRATIONS, Test System: CHINESE HAMSTER OVARY (CHO), Metabolic Activation: NONE
  mutagenic call: active; positive (structural changes: gaps, breaks)
End Point: IN VITRO MICRONUCLEUS, Test System: CHINESE HAMSTER V-79, Metabolic Activation: NONE
  mutagenic call: active; positive
End Point: In vitro chromosomal aberrations, Test System: Human peripheral lymphocytes, Metabolic Activation: None
  mutagenic call: active; positive
End Point: In vitro micronucleus, Test System: Human peripheral lymphocytes, Metabolic Activation: None
  mutagenic call: active; positive
End Point: In vivo micronucleus, Test System: Bone marrow polychromatic erythrocytes, Species: Mouse, Strain/Sex: C57BI/6J/Female, Route: Oral
  mutagenic call: inactive; negative
[3]
  mutagenic call: inactive; negative
Test System: CHINESE HAMSTER V-79, Strain/Indicator: SP5 V-79 (HPRT)/6-THIOGUANINE, Metabolic Activation: NONE, Method: STANDARD PLATE
  mutagenic call: inactive; negative
Test System: CHINESE HAMSTER V-79, Strain/Indicator: SPD8 V-79 (HPRT)/6-THIOGUANINE, Metabolic Activation: NONE, Method: STANDARD PLATE
  mutagenic call: active; positive
Test System: E. COLI, Strain/Indicator: WP2 UVRA, Metabolic Activation: NONE, Method: SPOT TEST
  mutagenic call: inactive; negative
Test System: MOUSE LYMPHOMA, Strain/Indicator: L5178Y (TK+/TK-), Metabolic Activation: NONE, Method: SUSPENSION/PLATE
  mutagenic call: active; positive

## NC(=O)NNC(N)=O
Test System: AMES SALMONELLA TYPHIMURIUM, Strain/Indicator: TA97, Metabolic Activation: HAMSTER, LIVER, S-9, AROCLOR 1254 (10 OR 30%), Method: PREINCUBATION
  mutagenic call: inactive; negative
Test System: AMES SALMONELLA TYPHIMURIUM, Strain/Indicator: TA97, Metabolic Activation: NONE, Method: PREINCUBATION
  mutagenic call: inactive; negative
Test System: AMES SALMONELLA TYPHIMURIUM, Strain/Indicator: TA97, Metabolic Activation: RAT, LIVER, S-9, AROCLOR 1254 (10 OR 30%), Method: PREINCUBATION
  mutagenic call: inactive; negative
Test System: AMES SALMONELLA TYPHIMURIUM, Strain/Indicator: TA98, Metabolic Activation: HAMSTER, LIVER, S-9, AROCLOR 1254 (10 OR 30%), Method: PREINCUBATION
  mutagenic call: inactive; negative
Test System: AMES SALMONELLA TYPHIMURIUM, Strain/Indicator: TA98, Metabolic Activation: NONE, Method: PREINCUBATION
  mutagenic call: inactive; negative
Test System: AMES SALMONELLA TYPHIMURIUM, Strain/Indicator: TA98, Metabolic Activation: RAT, LIVER, S-9, AROCLOR 1254 (10 OR 30%), Method: PREINCUBATION
  mutagenic call: inactive; negative
Test System: AMES SALMONELLA TYPHIMURIUM, Strain/Indicator: TA100, Metabolic Activation: HAMSTER, LIVER, S-9, AROCLOR 1254 (10 OR 30%), Method: PREINCUBATION
  mutagenic call: inactive; negative
Test System: AMES SALMONELLA TYPHIMURIUM, Strain/Indicator: TA100, Metabolic Activation: NONE, Method: PREINCUBATION
  mutagenic call: inactive; negative
Test System: AMES SALMONELLA TYPHIMURIUM, Strain/Indicator: TA100, Metabolic Activation: RAT, LIVER, S-9, AROCLOR 1254 (10 OR 30%), Method: PREINCUBATION
  mutagenic call: inactive; negative
Test System: AMES SALMONELLA TYPHIMURIUM, Strain/Indicator: TA1535, Metabolic Activation: HAMSTER, LIVER, S-9, AROCLOR 1254 (10 OR 30%), Method: PREINCUBATION
  mutagenic call: inactive; negative
Test System: AMES SALMONELLA TYPHIMURIUM, Strain/Indicator: TA1535, Metabolic Activation: NONE, Method: PREINCUBATION
  mutagenic call: inactive; negative
Test System: AMES SALMONELLA TYPHIMURIUM, Strain/Indicator: TA1535, Metabolic Activation: RAT, LIVER, S-9, AROCLOR 1254 (10 OR 30%), Method: PREINCUBATION
  mutagenic call: inactive; negative
Test System: AMES SALMONELLA TYPHIMURIUM, Strain/Indicator: TA1537, Metabolic Activation: HAMSTER, LIVER, S-9, AROCLOR 1254 (10 OR 30%), Method: PREINCUBATION
  mutagenic call: inactive; negative
Test System: AMES SALMONELLA TYPHIMURIUM, Strain/Indicator: TA1537, Metabolic Activation: NONE, Method: PREINCUBATION
  mutagenic call: inactive; negative
Test System: AMES SALMONELLA TYPHIMURIUM, Strain/Indicator: TA1537, Metabolic Activation: RAT, LIVER, S-9, AROCLOR 1254 (10 OR 30%), Method: PREINCUBATION
  mutagenic call: inactive; negative

## c1cc2c3c(c1)=C1OC1C=3Cc1cc3ccccc3cc1-2 (centres undefined)
[6]
  mutagenic call: active; positive
[1]
  mutagenic call: active; positive
